Experimental data published in ChEMBL document CHEMBL2069290, “Synthesis and biological evaluation of novel oxindole derivatives for imaging neurofibrillary tangles in Alzheimer's disease” (Bioorg Med Chem Lett, 2012).
Activity calls are given as the source filed them. No cut-off for these calls is given here.

Tests used:
[1] = target: Microtubule-associated protein tau (Homo sapiens, UniProt P10636); test: Binding affinity to human Tau aggregates after 30 mins by Thioflavin-S-based fluorescence assay
Homo sapiens [2] = species: Homo sapiens; test: Selectivity ratio of Ki for amyloid beta(1 to 42) to Ki for human Tau
[3] = target: Amyloid-beta precursor protein (Homo sapiens, UniProt P05067); test: Binding affinity to amyloid beta(1 to 42) aggregates after 30 mins by Thioflavin-S-based fluorescence assay
Homo sapiens [4] = species: Homo sapiens; test: Selectivity ratio of EC50 for amyloid beta(1 to 42) to EC50 for human Tau
Brain [5] = test: Ratio of drug uptake in ddY mouse brain after 2 mins to drug uptake in ddY mouse brain after 30 mins; type: ADME, tissue-based; details: in vivo
Kidney [6] = test: Biodistribution in ddY mouse kidney at 3.3 to 6.7 kBq, iv after 10 mins by gamma counting; type: ADME, organism-based; details: in vivo
Brain [7] = test: Biodistribution in ddY mouse brain at 3.3 to 6.7 kBq, iv after 60 mins by gamma counting; type: ADME, organism-based; details: in vivo, 1 h
Brain [8] = test: Biodistribution in ddY mouse brain at 3.3 to 6.7 kBq, iv after 2 mins by gamma counting; type: ADME, organism-based; details: in vivo
Spleen [9] = test: Biodistribution in ddY mouse spleen at 3.3 to 6.7 kBq, iv after 60 mins by gamma counting; type: ADME, organism-based; details: in vivo, 1 h
Stomach [10] = test: Biodistribution in ddY mouse stomach assessed per organ at 3.3 to 6.7 kBq, iv after 10 mins by gamma counting; type: ADME, organism-based; details: in vivo
Blood [11] = test: Biodistribution in ddY mouse blood at 3.3 to 6.7 kBq, iv after 30 mins by gamma counting; type: ADME, organism-based; details: in vivo, 0.5 h
Heart [12] = test: Biodistribution in ddY mouse heart at 3.3 to 6.7 kBq, iv after 30 mins by gamma counting; type: ADME, organism-based; details: in vivo, 0.5 h
Spleen [13] = test: Biodistribution in ddY mouse spleen at 3.3 to 6.7 kBq, iv after 10 mins by gamma counting; type: ADME, organism-based; details: in vivo
Kidney [14] = test: Biodistribution in ddY mouse kidney at 3.3 to 6.7 kBq, iv after 2 mins by gamma counting; type: ADME, organism-based; details: in vivo
Liver [15] = test: Biodistribution in ddY mouse liver at 3.3 to 6.7 kBq, iv after 60 mins by gamma counting; type: ADME, organism-based; details: in vivo, 1 h
Heart [16] = test: Biodistribution in ddY mouse heart at 3.3 to 6.7 kBq, iv after 2 mins by gamma counting; type: ADME, organism-based; details: in vivo
Brain [17] = test: Biodistribution in ddY mouse brain at 3.3 to 6.7 kBq, iv after 10 mins by gamma counting; type: ADME, organism-based; details: in vivo
Intestine [18] = test: Biodistribution in ddY mouse intestine at 3.3 to 6.7 kBq, iv after 10 mins by gamma counting; type: ADME, organism-based; details: in vivo
Pancreas [19] = test: Biodistribution in ddY mouse pancreas at 3.3 to 6.7 kBq, iv after 60 mins by gamma counting; type: ADME, organism-based; details: in vivo, 1 h
Kidney [20] = test: Biodistribution in ddY mouse kidney at 3.3 to 6.7 kBq, iv after 60 mins by gamma counting; type: ADME, organism-based; details: in vivo, 1 h
Blood [21] = test: Biodistribution in ddY mouse blood at 3.3 to 6.7 kBq, iv after 2 mins by gamma counting; type: ADME, organism-based; details: in vivo
Pancreas [22] = test: Biodistribution in ddY mouse pancreas at 3.3 to 6.7 kBq, iv after 2 mins by gamma counting; type: ADME, organism-based; details: in vivo
Blood [23] = test: Biodistribution in ddY mouse blood at 3.3 to 6.7 kBq, iv after 10 mins by gamma counting; type: ADME, organism-based; details: in vivo
Stomach [24] = test: Biodistribution in ddY mouse stomach assessed per organ at 3.3 to 6.7 kBq, iv after 2 mins by gamma counting; type: ADME, organism-based; details: in vivo
Brain [25] = test: Biodistribution in ddY mouse brain at 3.3 to 6.7 kBq, iv after 30 mins by gamma counting; type: ADME, organism-based; details: in vivo, 0.5 h
Pancreas [26] = test: Biodistribution in ddY mouse pancreas at 3.3 to 6.7 kBq, iv after 10 mins by gamma counting; type: ADME, organism-based; details: in vivo
Kidney [27] = test: Biodistribution in ddY mouse kidney at 3.3 to 6.7 kBq, iv after 30 mins by gamma counting; type: ADME, organism-based; details: in vivo, 0.5 h
Intestine [28] = test: Biodistribution in ddY mouse intestine at 3.3 to 6.7 kBq, iv after 2 mins by gamma counting; type: ADME, organism-based; details: in vivo
Blood [29] = test: Biodistribution in ddY mouse blood at 3.3 to 6.7 kBq, iv after 60 mins by gamma counting; type: ADME, organism-based; details: in vivo, 1 h
Spleen [30] = test: Biodistribution in ddY mouse spleen at 3.3 to 6.7 kBq, iv after 30 mins by gamma counting; type: ADME, organism-based; details: in vivo, 0.5 h
Liver [31] = test: Biodistribution in ddY mouse liver at 3.3 to 6.7 kBq, iv after 10 mins by gamma counting; type: ADME, organism-based; details: in vivo
Spleen [32] = test: Biodistribution in ddY mouse spleen at 3.3 to 6.7 kBq, iv after 2 mins by gamma counting; type: ADME, organism-based; details: in vivo
Intestine [33] = test: Biodistribution in ddY mouse intestine at 3.3 to 6.7 kBq, iv after 60 mins by gamma counting; type: ADME, organism-based; details: in vivo, 1 h
Stomach [34] = test: Biodistribution in ddY mouse stomach assessed per organ at 3.3 to 6.7 kBq, iv after 30 mins by gamma counting; type: ADME, organism-based; details: in vivo, 0.5 h
Heart [35] = test: Biodistribution in ddY mouse heart at 3.3 to 6.7 kBq, iv after 60 mins by gamma counting; type: ADME, organism-based; details: in vivo, 1 h
Liver [36] = test: Biodistribution in ddY mouse liver at 3.3 to 6.7 kBq, iv after 30 mins by gamma counting; type: ADME, organism-based; details: in vivo, 0.5 h
Liver [37] = test: Biodistribution in ddY mouse liver at 3.3 to 6.7 kBq, iv after 2 mins by gamma counting; type: ADME, organism-based; details: in vivo
Stomach [38] = test: Biodistribution in ddY mouse stomach assessed per organ at 3.3 to 6.7 kBq, iv after 60 mins by gamma counting; type: ADME, organism-based; details: in vivo, 1 h
Intestine [39] = test: Biodistribution in ddY mouse intestine at 3.3 to 6.7 kBq, iv after 30 mins by gamma counting; type: ADME, organism-based; details: in vivo, 0.5 h
Heart [40] = test: Biodistribution in ddY mouse heart at 3.3 to 6.7 kBq, iv after 10 mins by gamma counting; type: ADME, organism-based; details: in vivo
Pancreas [41] = test: Biodistribution in ddY mouse pancreas at 3.3 to 6.7 kBq, iv after 30 mins by gamma counting; type: ADME, organism-based; details: in vivo, 0.5 h
Homo sapiens [42] = species: Homo sapiens; test: Binding affinity to neurofibrillary tangles in entorhinal cortex of alzheimer disease patient after 10 mins by Thioflavin-S-based fluorescence microscopy; type: tissue-based

Microtubule-associated protein tau, sequence (P10636 whole entry): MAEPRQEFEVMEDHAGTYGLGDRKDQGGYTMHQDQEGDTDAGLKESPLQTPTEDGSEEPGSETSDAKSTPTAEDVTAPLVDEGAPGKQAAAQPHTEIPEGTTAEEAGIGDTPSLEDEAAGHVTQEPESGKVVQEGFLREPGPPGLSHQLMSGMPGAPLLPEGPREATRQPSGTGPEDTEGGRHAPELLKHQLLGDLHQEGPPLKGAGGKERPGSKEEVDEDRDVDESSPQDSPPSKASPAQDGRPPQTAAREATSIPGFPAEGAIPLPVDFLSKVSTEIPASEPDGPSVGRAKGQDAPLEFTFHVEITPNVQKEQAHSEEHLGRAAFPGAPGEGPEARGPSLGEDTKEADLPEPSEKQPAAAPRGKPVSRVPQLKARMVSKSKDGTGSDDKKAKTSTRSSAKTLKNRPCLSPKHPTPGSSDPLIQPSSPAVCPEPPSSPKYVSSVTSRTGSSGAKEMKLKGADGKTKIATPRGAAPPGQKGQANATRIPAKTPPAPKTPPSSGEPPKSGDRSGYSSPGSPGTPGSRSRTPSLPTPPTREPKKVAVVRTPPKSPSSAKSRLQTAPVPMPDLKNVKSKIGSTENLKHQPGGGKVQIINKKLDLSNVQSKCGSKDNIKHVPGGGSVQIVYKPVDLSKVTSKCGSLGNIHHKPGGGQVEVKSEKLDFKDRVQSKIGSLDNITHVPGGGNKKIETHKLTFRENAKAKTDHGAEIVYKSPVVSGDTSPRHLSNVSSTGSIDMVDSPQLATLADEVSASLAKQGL
Amyloid-beta precursor protein, sequence (P05067 whole entry): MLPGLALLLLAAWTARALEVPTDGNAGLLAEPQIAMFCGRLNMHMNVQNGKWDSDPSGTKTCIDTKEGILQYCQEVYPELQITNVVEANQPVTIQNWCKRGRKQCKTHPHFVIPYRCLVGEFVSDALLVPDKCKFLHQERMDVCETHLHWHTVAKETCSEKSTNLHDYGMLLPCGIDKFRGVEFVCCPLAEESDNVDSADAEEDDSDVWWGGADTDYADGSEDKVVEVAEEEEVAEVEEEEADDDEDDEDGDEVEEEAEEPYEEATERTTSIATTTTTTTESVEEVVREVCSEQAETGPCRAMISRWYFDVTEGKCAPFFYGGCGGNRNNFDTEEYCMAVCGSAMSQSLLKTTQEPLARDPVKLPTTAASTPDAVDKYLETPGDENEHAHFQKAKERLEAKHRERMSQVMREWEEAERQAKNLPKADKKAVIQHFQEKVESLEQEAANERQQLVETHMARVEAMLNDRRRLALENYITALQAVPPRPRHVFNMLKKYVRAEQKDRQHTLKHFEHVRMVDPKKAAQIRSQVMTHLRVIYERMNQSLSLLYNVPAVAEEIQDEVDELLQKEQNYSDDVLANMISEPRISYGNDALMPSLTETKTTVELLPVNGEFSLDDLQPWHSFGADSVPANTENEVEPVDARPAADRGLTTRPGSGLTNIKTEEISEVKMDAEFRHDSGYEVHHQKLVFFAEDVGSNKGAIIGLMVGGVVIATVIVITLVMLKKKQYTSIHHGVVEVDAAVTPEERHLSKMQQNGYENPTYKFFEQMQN

CNc1ccc(C=C2C(=O)Nc3ccc(I)cc32)cc1
Ki [1]: 1430 nM | Ratio Ki (Homo sapiens [2]): 3.54 | Ki [3]: 5060 nM

CNc1ccc(-c2ccc3ccccc3n2)cc1
Ratio EC50 (Homo sapiens [4]): 1.65

CN(C)c1ccc(/N=N/c2nc3ccc(OCCOCCOCC[18F])cc3s2)cc1
Ratio (Brain [5]): 1.23

O=C1/C(=C/c2ccc(-c3cccc(I)c3)o2)NC(=S)N1CCc1c[nH]cn1
Ratio Ki (Homo sapiens [2]): 7.33

CNc1ccc(/C=C2\Nc3ccc([125I])cc3C2=O)cc1
Drug uptake (Kidney [6]): 18.16 % ID/g | Drug uptake (Brain [7]): 0.23 % ID/g | Drug uptake (Brain [8]): 2.45 % ID/g | Drug uptake (Spleen [9]): 7.75 % ID/g | Drug uptake (Stomach [10]): 1.7 %ID | Drug uptake (Blood [11]): 3.3 % ID/g | Drug uptake (Heart [12]): 6.32 % ID/g | Drug uptake (Spleen [13]): 9.67 % ID/g | Drug uptake (Kidney [14]): 13.48 % ID/g | Drug uptake (Liver [15]): 6.26 % ID/g | Drug uptake (Heart [16]): 8.52 % ID/g | Drug uptake (Brain [17]): 1.75 % ID/g | Drug uptake (Intestine [18]): 4.24 % ID/g | Ratio (Brain [5]): 3.31 | Drug uptake (Pancreas [19]): 1.4 % ID/g | Drug uptake (Kidney [20]): 10.01 % ID/g | Drug uptake (Blood [21]): 7.5 % ID/g | Drug uptake (Pancreas [22]): 5.43 % ID/g | Drug uptake (Blood [23]): 4.97 % ID/g | Drug uptake (Stomach [24]): 0.77 %ID | Drug uptake (Brain [25]): 0.74 % ID/g | Drug uptake (Pancreas [26]): 2.95 % ID/g | Drug uptake (Kidney [27]): 19.35 % ID/g | Drug uptake (Intestine [28]): 2.29 % ID/g | Drug uptake (Blood [29]): 1.95 % ID/g | Drug uptake (Spleen [30]): 14.05 % ID/g | Drug uptake (Liver [31]): 12.4 % ID/g | Drug uptake (Spleen [32]): 6.97 % ID/g | Drug uptake (Intestine [33]): 9.86 % ID/g | Drug uptake (Stomach [34]): 2.96 %ID | Drug uptake (Heart [35]): 2.65 % ID/g | Drug uptake (Liver [36]): 11.59 % ID/g | Drug uptake (Liver [37]): 9.51 % ID/g | Drug uptake (Stomach [38]): 2.92 %ID | Drug uptake (Intestine [39]): 7.55 % ID/g | Drug uptake (Heart [40]): 5.36 % ID/g | Drug uptake (Pancreas [41]): 2.25 % ID/g

CN(C)c1ccc(/C=C2\Nc3ccc(I)cc3C2=O)cc1
Activity (Homo sapiens [42]): Active | Ki [1]: 17 nM | Ratio Ki (Homo sapiens [2]): 1.77 | Ki [3]: 31 nM

CNc1ccc(/C=C2\Nc3ccc(I)cc3C2=O)cc1
Ki [1]: 112 nM | Ratio Ki (Homo sapiens [2]): 1.03 | Ki [3]: 116 nM
